Measurements taken from US20240041830A1, “CIRCULATING BIOMARKERS OF RESPONSE TO PD-1/PD-L1 BLOCKADE AND GSK-3 INHIBITION” (Brown University, priority 2022, published 2024).

Legend:
[1] = system: HCT-116; assay: microarray analysis; assay type: cell-based, human; details: HCT-116 by context; 24 hours vs untreated
Protocol: Microarrays. A total of 0.5×10^6 tumor cells (HCT-116, HT-29, KM12C) were plated in a 6-well plate and allowed to adhere overnight before 24-hour treatment, as indicated. Then, 1×10^6 immune cells (NK92, TALL-104) were plated and treated with elraglusib as indicated for twenty-four h. RNA was isolated from cell pellets in batches of six using a RNeasy Plus Mini Kit (Cat #74134, Qiagen, Hilden, Germany). Acceptable RNA concentration and quality were verified with Nanodrop and Bioanalyzer measurements. GeneChip™ Human Transcriptome Array 2.0 assays were conducted according to manufacturer instructions in two batches using randomized samples to limit batch effects (Cat #902162, Applied Biosystems, Waltham, MA, USA). Applied Biosystems Transcriptomic Analysis Console (TAC) software (RRID: SCR_016519) was used to calculate fold changes in gene expression relative to the untreated control cells. Values were considered statistically significant for p values<0.05.
The inventors then utilized microarray analysis to gain insights into gene expression changes in colorectal cancer cell lines post-GSK-3 inhibition with elraglusib. Several colorectal cancer cell lines (HCT-116, HT-29, KM12C) were treated with elraglusib at IC-50 concentrations or DMSO as vehicle control for twenty-four hours. Treated versus untreated samples were compared in triplicate using microarray analysis FIG. 10. Results were calculated using a fold change (FC) cutoff of >1.5, <−1.5, and a minimum p-value of<0.05. HCT-116 cells had 340 differentially expressed genes post-treatment. FIG. 2C.

[2] = system: patient-derived CD8+ T cells; assay: ex vivo cytokine profiling of supernatant (Luminex); assay type: cell-based, human; details: forty-eight hours (1 NM) vs DMSO
Protocol: Human cytokine profiling. Human cell line culture supernatants were analyzed using an R&D systems Human Premixed Multi-Analyte Kit (R&D Systems, Inc., Minneapolis, MN, USA) and a Luminex 200 (RRID: SCR_018025) Instrument (LX200-XPON-RUO, Luminex Corporation, Austin, TX, USA) according to the manufacturer's instructions. Sample levels of TNF-α, 4-1BB/TNFRSF9/CD137, IL-8/CXCL8, Ferritin, IFN-β, IL-10, CCL2/JE/MCP-1, VEGF, CXCL13/BLC/BCA-1, IFN-γ, CCL20/MIP-3 α, CCL3/MIP-1 α, CCL22/MDC, CCL4/MIP-1 β, Fas Ligand/TNFSF6, IL-17/1L-17A, IL-2, BAFF/BLyS/TNFSF13B, GM-CSF, CXCLS/ENA-78, TRANCE/TNFSF11/RANK L, CXCL9/MIG, G-CSF, IFN-γ R1/CD119, VEGFR3/Flt-4, C-Reactive Protein/CRP, CXCL11/I-TAC, IL-21, CXCL14/BRAK, IL-6, Fas/TNFRSF6/CD95, TRAIL R3/TNFRSF10C, IL-4, CCL5/RANTES, PD-L1/137-H1, CCL7/MCP-3/MARC, Chitinase 3-like 1, CXCL10/IP-10/CRG-2, IL-1 μ/IL-1F2, IL-7, Prolactin, CCL8/MCP-2, TRAIL R2/TNFRSF10B, M-CSF, IL-15, Granzyme B, IFN-α, TREM-1, IL-12/1L-23 p40, TRAIL/TNFSF10, CCL11/Eotaxin, and 1L-18/1L-1F4. Quantitative analysis with 6 standards and a minimum of 50 counts per bead region was used with the Luminex to generate analyte values reported as picograms/milliliter (pg/mL). Sample concentrations less than the lower limit of detection for each particular analyte were recoded as the lower limit value divided by 10. Sample concentrations above the upper limit of detection for a particular analyte were recoded as the upper limit of detection.
The inventors collected peripheral blood during the patient's best response at fifteen months, corresponding with their lowest concentration of sIL-2 r in the peripheral blood, and isolated CD8+, non-ATLL T cells for further analysis. The inventors then treated these CD8+ cells ex vivo with elraglusib and assessed changes in cytokine, chemokine, and growth factor profiles in the cell culture supernatant using Luminex (LX200) technology and a custom cytokine panel described by Huntington, Louie, Zhou, & EI-Deiry, A high-throughput customized cytokinome screen of colon cancer cell responses to small-molecule oncology drugs. Oncotarget, 12, 1980-1991 (2021).
Treatment of patient-derived CD8+ T cells with elraglusib increases granzyme B, TRAIL, and IFN-gamma secretion while decreasing VEGF, TNF-alpha, and CCL5/RANTES concentrations in cell culture supernatant in comparison to control groups. Patient-derived CD8+ cytotoxic T cells were treated with elraglusib for forty-eight hours (1 NM) or control (DMSO) and cytokine concentration was measured in cell culture supernatants. (Statistical significance was calculated with GraphPad Prism 9.3.1 using unpaired t tests and is denoted on each plot as follows: P>0.05=n.s., P≤0.05=*, P≤0.01=**, P≤0.001=***, and P≤0.0001=**** (N=3).

[3] = system: MSS cell line CT-26; assay: syngeneic murine colon carcinoma BALB/c model, survival and tumor response; assay type: in vivo, mouse
Protocol: In vivo studies. […] Once tumor volume reached at least 100 mm^3, mice were randomly assigned to one of seven groups (12 mice/group): Control (isotype), elraglusib, elraglusib+Isotype, anti-PD-1, anti-PD-L1, elraglusib+anti-PD-1, and elraglusib+anti-PD-L1. All treatments were delivered by IP injection using the following dosing schedule: Isotype (70 mg/kg, twice a week), elraglusib (70 mg/kg, twice a week), anti-PD-1 (10 mg/kg, twice a week), anti-PD-L1 (10 mg/kg, twice a week). Treatment dosing was determined based on previous studies of elraglusib and anti-PD-1/anti-PD-L1. […] The treatment continued until mice developed signs of discomfort from excessive tumor growth. Mice were weighed once a week to monitor signs of drug toxicity. The length (L) and width (W) of the masses were measured three times per week with a digital caliper, and the tumor volume was calculated by applying the formula: 0.5LW2 Collection of whole blood and serum was performed by cardiac puncture and sent to Antech Diagnostics GLP (Morrisville, NC, USA) for blood cell count and chemistry tests, or in-house cytokine profiling. Tumors and organs were dissected and harvested for analysis by immunohistochemistry and flow cytometry.
In a syngeneic murine colon carcinoma BALB/c model using microsatellite stable cell line CT-26, the inventors compared isotype, elraglusib (70 mg/kg 2×/week), αPD-1 (10 mg/kg 2×/week), αPD-L1 (10 mg/kg 2×/week), elraglusib+αPD-1, and elraglusib+αPD-L1 treatment groups.
The inventors evaluated the potential for elraglusib to increase the efficacy of immune checkpoint blockade and utilized a syngeneic murine colon carcinoma BALB/c murine model using a MSS cell line CT-26 (FIG. 4A). Mice were randomly assigned to one of seven groups: isotype (N=12), elraglusib (N=12), elraglusib+isotype (N=12), anti-PD-1 (N=12), anti-PD-L1 (N=12), elraglusib+anti-PD-1 (N=12), and elraglusib+ anti-PD-L1 (N=12).

[4] = system: GFP+ SW480 colorectal cancer cells; assay: immune cell-killing co-culture assay (Example 1); assay type: cell-based, human
Protocol: A panel of human colorectal cell lines was chosen to provide a varied mutational background (TP53, KRAS, BRAF, TRK, APC, PIK3CA). Cells were treated with elraglusib at doses up to 50 μM for seventy-two hours to determine IC10, IC30, IC50, and IC70. Cytokine, chemokine, and growth factor levels were analyzed in the tumor cell culture supernatants after treatment at IC10, IC30, IC50, and IC70 for forty-eight hours using a Luminex 200 multiplexing instrument. Co-culture experiments were conducted with GFP+ SW480 colorectal cancer cells and either NK-92 natural killer cells or TALL-104 T cells at various effector/target ratios in a 48-well plate, in the presence or absence of elraglusib.

[5] = vs controls without drug treatment

Cn1cc(C2=C(c3coc4ccc(F)cc34)C(=O)NC2=O)c2cc3c(cc21)OCO3 [elraglusib]
CMTM4 fold change [1]: −1.84
NEK2 fold change [1]: −2.21
PPP1R1C fold change [1]: 1.78
CCL5/RANTES concentration in supernatant [2]: decreasing
IFN-gamma secretion [2]: increases
TNF-alpha concentration in supernatant [2]: decreasing
TRAIL secretion [2]: increases
VEGF concentration in supernatant [2]: decreasing
granzyme B secretion [2]: increases
survival compared to the control ([3]; N=12 per group): statistically significant improved survival
hazard ratio for death (HR) ([3]; compared to isotype control group): 0.12
median overall survival ([3]; elraglusib 70 mg/kg 2×/week, αPD-1/αPD-L1 10 mg/kg 2×/week, isotype control group 16 d): 19 days
cell-killing after pre-treatment of the target tumor cells ([4]; pre-treatment of tumor cells, but not effector immune cells): bolstered cell-killing
T cell (TALL-104) killing of colorectal cancer cells [4, 5]: significant increase
natural killer (NK-92) cell killing of colorectal cancer cells [4, 5]: significant increase
